The text below walks through data of patent publication US5420343A, “Derivatives of aromatic cyclic alkylethers” (G. D. Searle & Co., priority 1994, dated 1995).

The term IC50 denotes the point on the concentration scale where inhibition reaches its midpoint.

Structures are written as SMILES.

For one series, the target named is T1, human COX-II (Homo sapiens, UniProt P35354).
T1 construct: made in house; host or cells: SF9 insect cells, recombinant baculovirus (pVL1393); coding fragment from Caymen Chemical, Ann Arbor, Mich
T1 sequence (P35354 18-604): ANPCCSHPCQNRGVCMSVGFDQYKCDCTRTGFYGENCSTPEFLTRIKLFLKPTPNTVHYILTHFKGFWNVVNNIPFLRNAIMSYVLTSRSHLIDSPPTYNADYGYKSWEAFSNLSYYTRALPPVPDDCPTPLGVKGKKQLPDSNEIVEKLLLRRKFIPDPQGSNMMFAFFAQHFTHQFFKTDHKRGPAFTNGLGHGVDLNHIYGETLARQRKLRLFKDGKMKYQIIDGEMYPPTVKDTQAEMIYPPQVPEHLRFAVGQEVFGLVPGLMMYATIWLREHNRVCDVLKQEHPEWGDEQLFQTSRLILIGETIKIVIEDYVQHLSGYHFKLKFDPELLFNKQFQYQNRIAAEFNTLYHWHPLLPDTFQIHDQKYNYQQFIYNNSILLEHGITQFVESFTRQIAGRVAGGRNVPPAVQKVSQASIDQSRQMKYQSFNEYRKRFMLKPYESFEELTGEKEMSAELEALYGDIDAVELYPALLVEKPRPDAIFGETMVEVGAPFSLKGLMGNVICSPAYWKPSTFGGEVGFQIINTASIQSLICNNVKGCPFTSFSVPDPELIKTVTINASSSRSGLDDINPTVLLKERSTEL
In words: Human Enzyme Assay, COX-II (recombinant enzyme, PGE2 ELISA). Format: biochemical. Particulars: 10 μM arachidonic acid, 10-20 min pre-incubation. The protocol:
(§1) The compounds of the invention are evaluated with respect to COX-I and COX-II activity in vitro using an enzyme based assay according to the following assay procedure.
(§2) A 2.0 kb fragment containing the coding region for either human or murine COX-I (Caymen Chemical, Ann Arbor, Mich.), or human or murine COX-II (Caymen Chemical, Ann Arbor, Mich.), was cloned into a BamH1 site of the baculovirus transfer vector pVL1393 (Invitrogen, Palo Alto, Calif.) to generate a baculovirus transfer vector. Recombinant baculoviruses were isolated by transfecting 4 μg of baculovirus transfer vector DNA into SF9 cells (2×10e8) (Invitrogen, Palo Alto, Calif.) along with 200 ng of linearized bacium by the phosphate method. See M. D. Summers et al., "A Manual of Methods for Baculovirus Vectors and Insect Cell Culture Procedure," TEXAS AGRICULTURE EXPERIMENTAL STATION BULLETIN, No. 1555 (1987), which is incorporated herein by reference. Recombinant viruses were purified by three rounds of plaque purification, and high titer (10e7-10e8 pfu/ml) stocks of virus were prepared. […]
(§3) COX activity was assayed as PGE2 formed/μg protein/time using an ELISA (Caymen Chemical, Ann Arbor, Mich.) to detect the prostaglandin E2 released. […] The PGE2 formed was measured by standard ELISA technology (Cayman Chemical, Ann Arbor, Mich.). […]
On the technique in general: In an ELISA, binding on a coated surface is turned into a signal by an enzyme label.

The target in another series is T2, human COX-I (Homo sapiens, UniProt P23219).
T2 construct: made in house; host or cells: SF9 insect cells, recombinant baculovirus (pVL1393); coding fragment from Caymen Chemical, Ann Arbor, Mich
T2 sequence (P23219 24-599): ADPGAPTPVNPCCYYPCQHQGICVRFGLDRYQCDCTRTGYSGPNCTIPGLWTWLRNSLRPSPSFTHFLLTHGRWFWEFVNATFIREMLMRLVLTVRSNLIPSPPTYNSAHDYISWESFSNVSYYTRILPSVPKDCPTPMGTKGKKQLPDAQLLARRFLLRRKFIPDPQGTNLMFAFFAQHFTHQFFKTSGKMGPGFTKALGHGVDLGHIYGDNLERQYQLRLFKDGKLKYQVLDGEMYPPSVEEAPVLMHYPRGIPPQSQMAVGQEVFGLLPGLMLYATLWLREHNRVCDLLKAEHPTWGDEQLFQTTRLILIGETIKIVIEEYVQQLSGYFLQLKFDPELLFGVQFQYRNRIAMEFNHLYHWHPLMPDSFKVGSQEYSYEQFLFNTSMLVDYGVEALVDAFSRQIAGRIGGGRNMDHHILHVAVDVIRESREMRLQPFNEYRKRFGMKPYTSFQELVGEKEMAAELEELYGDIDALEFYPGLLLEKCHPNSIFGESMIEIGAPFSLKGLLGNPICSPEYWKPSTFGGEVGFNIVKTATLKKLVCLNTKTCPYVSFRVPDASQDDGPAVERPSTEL
The series is described as follows: Human Enzyme Assay, COX-I (recombinant enzyme, PGE2 ELISA). It counts as biochemical. Particulars: 10 μM arachidonic acid, 10-20 min pre-incubation. As to the method: as §1, §2, §3

The target of the next series is T3, cellular COX-II (Homo sapiens, UniProt P35354).
T3 construct: stimulated human fetal dermal fibroblasts (HFDF, derived from primary cell cultures); endogenous in cells; host or cells: human fetal dermal fibroblasts (HFDF), primary culture, stimulated overnight with IL-1 beta
T3 sequence (P35354 18-604): T1 sequence (P35354 18-604)
The series is described as follows: Cellular COX-II Assay (Cell Fibroblast Assay). The settings on record: IL-1 beta stimulated human fetal dermal fibroblasts; 20 μM arachidonic acid; PGE2 by ELISA. Format: cell-based. As to the method:
The results for this assay, as well as for the next assay (COX-II Cell Fibroblast Assay) are expressed in terms of COX-I or II activity as an IC50 value (50% inhibitory concentration), as defined as the amount of prostaglandin E2 (PGE2) formed per protein per time in response to the enzyme substrate arachidonic acid.
The compounds of the invention are evaluated with respect to the inhibition of cellular COX-II in vitro according to the following Cellular COX-II Assay (Cell Fibroblast Assay).
Inhibition of cellular COX-II by test compounds is determined using stimulated human fetal dermal fibroblasts (HFDF, derived from primary cell cultures). […] Supernatants are collected and Prostaglandin E2 (PGE2) production is measured by an enzyme-linked immunosorbent assay (ELISA; antibodies produced by Cayman Chemical Company, Ann Arbor, Mich.). […]
The procedure uses information for indomethacin and the rest of the plate in defining the minimum and maximum response. […] For the other compounds, if a response is measured which is less than the response for the unstimulated wells, then this response may be considered to be another estimate of a minimal response. […]

The next series relates to COX II enzyme. The settings on record: E. Meade et al., J. Biol. Chem. 268, 6610 (1993); cited from earlier work.
For series [1] the following is noted: Futaki et al., Gen. Pharmac. 24, 105 (1993); cited from earlier work.
The conditions of series [2]: Futaki et al., Gen. Pharmac. 24, 105 (1993); cited from earlier work. This is another data set of the same source.

For `CC(C)(C)c1cc(C[C@H]2CCC[C@H]2OCC(=O)O)cc(C(C)(C)C)c1` (relative stereo) [Example 7, (cis)-2-[[2-[3,5-bis(1,1-dimethylethyl) -phenylmethyl]cyclopentyl]oxy]-acetic acid], the IC50 on human COX-II is 1.34 µM; at human COX-I, more than 100 µM.

In the case of `CC(C)(C)c1cc(C[C@@H]2CCC[C@H]2OCC(=O)O)cc(C(C)(C)C)c1` (relative stereo) [Example 8, (trans)-2-[[2-[3,5-bis(1,1-dimethylethyl) -phenylmethyl]cyclopentyl]oxy]acetic acid], the 50% inhibitory concentration (IC50) was 0.002 µM at cellular COX-II, more than 100 µM at human COX-II and more than 100 µM on human COX-I.

Turning to `COc1ccc2cc(CC(=O)O)ccc2c1` [6-methoxy-2-napthylacetic acid], the “selective inhibition of COX II enzyme” value in the series with COX II enzyme is recorded as “selectively inhibit the COX II enzyme”.

Consider `CS(=O)(=O)Nc1ccc([N+](=O)[O-])cc1OC1CCCCC1` [N-(2-cyclohexyloxy-4-nitrophenyl)methanesulfonamide], for which, in series [1], the anti-inflammatory activity result is “anti-inflammatory”. For the same compound, the gastric side effects result in series [2] is reported as “lacks gastric side effects”.
